Measured values reported in patent US6060516A, “N^1 -propargylhydrazines, N^2 -propargylhydrazines and their analogs for the treatment of depression, anxiety and neurodegeneration” (CV Technologies, Inc., priority 1998, dated 2000).

How the values were obtained:
[1] = system: valine, alanine and gamma-aminobutyric acid (GABA) concentrations in rat brain; assay: Brain valine, alanine and gamma-aminobutyric acid (GABA) concentrations; assay type: in vivo; settings: for GABA / Valine: 2 × 75 μmol/kg per os
[2] = system: MAO-A; assay: MAO-A inhibition ex vivo in DSP-4 treated mice (brain); parameters: species or system mouse
Description: The compounds were evaluated for ex vivo monoamine oxidase-A inhibiting activity using the radiochemical procedure of Lyles, G. A. and Callingham, B. A. (1982). […] Biochem. Pharmacol. 31: 1417-1424. Radiolabelled 5-hydroxytryptamine was used as a substrate for monoamine oxidase-A. The compounds of interest were either injected intraperitonealy in DMSO or administered by gavage in water for various periods. The animals were killed by decapitation and the brains and livers immediately removed and frozen until assayed for monoamine oxidase-A activity. Tissues were homogenized and appropriately diluted in buffer prior to incubation. Incubations proceeded at 37° C. for 10 minutes. Incubation was terminated by the addition of acid and the radiolabelled product (5-hydroxyindoleacetaldehyde and 5-hydroxyindoleacetic acid) was extracted and quantified by liquid scintillation counting procedures. Incubations were done in triplicate and incubations containing phenelzine were included for comparison. The percent inhibition of monoamine oxidase-A activity compared to controls containing no drug was calculated.
(§1) Neuroprotectant activity was evaluated by examining the prevention of DSP-4 induced noradrenaline depletion in mouse hippocampus as described in Yu, P. H., Davis, B. A., Fang, J. and Boulton, A. A. (1994), Neuroprotective effect of some monoamine oxidase-B inhibitors against DSP-4 induced noradrenaline depletion in the mouse hippocampus, J. Neurochem. 63: 1820-1828. Briefly, mice were injected (i.p.) with either 20% DMSO or potential neuroprotectants (10 mg/kg in 20% DMSO). One hour later they were injected with either water or DSP-4 (50 mg/kg in water). One week later the mice were killed and the brains removed and the hippocampus dissected out. The hippocampus was frozen and saved for estimation of noradrenaline and other aminergic neurotransmitters and their metabolites as in Sloley, B. D. and Goldberg J. I. (1991), Determination of γ-glutamyl conjugates of monoamines by means of high-performance liquid chromatography with electrochemical detection and application to gastropod tissues, J. Chromatog. 567: 49-56. The rest of the brain was frozen and retained for estimation of monoamine oxidase activities ex vivo as described earlier.

[3] = system: valine, alanine and gamma-aminobutyric acid (GABA) concentrations in rat brain; assay: Brain valine, alanine and gamma-aminobutyric acid (GABA) concentrations; assay type: in vivo; settings: for GABA / Valine: 150 μmol/kg, 5 hr, ip; for GABA concentrations: doses as high as 150 μmol/kg; for GABA concentrations / elevation of alanine: in words
Description: Effects of various doses of CVT-P040, CVT-P041 and phenelzine on the concentrations of some brain amino acids were evaluated by examining concentrations of gamma-aminobutyric acid (GABA) 5 hours after the injection of the drug. Briefly, rats were injected with CVT-P040 ([…]), vehicle, or phenelzine (150 μmol/kg) and killed 3 or 5 hours later. The brains were removed and divided in half. One half of the brain was frozen in isopentane on dry ice and retained for estimates of GABA concentrations. GABA and other amino acid concentrations were estimated using the method of Wong, J. T. F., Baker, G. B. and Coutts, R. T. (1990), A rapid, sensitive assay for γ-aminobutyric acid in brain using electron-capture gas chromatography, Res. Comm. Chem. Path. Pharmacol. 70: 115-122.

[4] = target: T1, rat brain monoamine oxidase-A (Rattus norvegicus, UniProt P21396); assay: Monoamine oxidase-A inhibiting activity in vitro (radiochemical, 5-hydroxytryptamine substrate, rat brain homogenate); assay type: biochemical; settings: for inhibition at 100 µM: 1 × 10^-4 M; for inhibition at 10 µM: 1 × 10^-5 M; for inhibition at 1 µM: 1 × 10^-6 M; for inhibition at 0.1 µM: 1 × 10^-7 M; for inhibition at 0.01 µM: 1 × 10^-8 M
T1 construct: appropriately diluted homogenates of rat brain or liver; from tissue; host or cells: rat brain or liver homogenate
T1 sequence (P21396 1-526): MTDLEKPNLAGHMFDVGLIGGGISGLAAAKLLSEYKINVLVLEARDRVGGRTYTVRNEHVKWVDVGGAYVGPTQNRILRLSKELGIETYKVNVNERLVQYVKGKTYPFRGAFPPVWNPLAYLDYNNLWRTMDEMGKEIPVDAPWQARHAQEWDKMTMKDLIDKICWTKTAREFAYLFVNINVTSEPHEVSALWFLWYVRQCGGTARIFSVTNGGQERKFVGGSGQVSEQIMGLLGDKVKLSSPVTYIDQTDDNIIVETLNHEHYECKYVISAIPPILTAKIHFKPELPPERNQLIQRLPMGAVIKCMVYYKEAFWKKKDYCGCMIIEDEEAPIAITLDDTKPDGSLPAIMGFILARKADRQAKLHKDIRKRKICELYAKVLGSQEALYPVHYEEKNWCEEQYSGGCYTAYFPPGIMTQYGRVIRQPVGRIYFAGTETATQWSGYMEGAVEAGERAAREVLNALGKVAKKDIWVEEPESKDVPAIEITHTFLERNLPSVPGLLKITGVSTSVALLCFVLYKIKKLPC
Description: Radiolabelled 5-hydroxytryptamine was used as the substrate for monoamine oxidase-A. Various concentrations of the compounds were incubated in appropriately diluted homogenates of rat brain or liver in a 0.2 M potassium phosphate buffer. Incubations proceeded at 37° C. for 10 minutes. Incubation was terminated by the addition of acid and the radiolabelled product (5-hydroxyindoleacetic acid) was extracted and quantified by liquid scintillation counting procedures. Incubations were done in triplicate and incubations containing phenelzine were included for comparison. The percent inhibition of monoamine oxidase-A activity compared to controls without the compounds of the present invention was calculated.

[5] = system: DSP-4 induced noradrenaline depletion in mouse hippocampus; assay: Prevention of DSP-4 induced noradrenaline depletion in mouse hippocampus; assay type: in vivo; settings: for protection against DSP-4 induced noradrenaline depletion / neuroprotective effect: 10 mg/kg, mouse hippocampus, in words
Description: as §1

[6] = system: NA, DA, 5-HT, 5-HIAA and DOPAC concentrations in rat hypothalamus; assay: Rat hypothalamus amine and amine metabolite concentrations; assay type: in vivo; settings: 2 × 75 μmol/kg per os
[7] = 10 mg/kg i.p. then DSP-4 50 mg/kg, 20% DMSO control experiment

C#CCN(N)CCc1ccccc1 [CVT-P040, N^1 -propargylphenelzine]
GABA [1]: 329 ± 43 µg/g | Valine [1]: 25.4 ± 1.8 µg/g | MAO-A % Inhibition [2, 7]: 57.9 ± 2.9% | preference for MAO-A inhibition ([2]; DSP-4 experiment, 10 mg/kg, in words): strong preference for MAO-A inhibition | GABA [3]: 270 ± 23 µg/g | Valine [3]: 22.9 ± 1.4 µg/g | GABA concentrations [3]: did not elevate GABA concentrations | elevation of alanine [3]: elevation of alanine was not seen | inhibition at 100 µM [4]: 99.5% | inhibition at 10 µM [4]: 99.1% | inhibition at 1 µM [4]: 71.1% | inhibition at 0.1 µM [4]: 20.6% | inhibition at 0.01 µM [4]: 0.7% | % NA Restoration [5, 7]: 55.4% | NA [5, 7]: 235 ± 26 ng/g | protection against DSP-4 induced noradrenaline depletion / neuroprotective effect [5]: significantly protected against DSP-4 induced noradrenaline depletion

C#CCN(CCc1ccccc1)NC(C)=O [CVT-P041, N^1 -propargyl-N^2 -acetylphenelzine]
GABA [1]: 300 ± 22 µg/g | Valine [1]: 26.4 ± 1.4 µg/g | 5-HT [6]: 946 ng/g | DA [6]: 553 ± 129 ng/g | MAO-A % Inhibition ([2]; 10 mg/kg then DSP-4 50 mg/kg, saline control experiment): 4.3 ± 6.2% | GABA [3]: 253 ± 0 µg/g | Valine [3]: 20.6 ± 0.5 µg/g | GABA concentrations [3]: did not elevate GABA concentrations | elevation of alanine [3]: elevation of alanine was not seen | inhibition at 100 µM [4]: 79.5% | inhibition at 10 µM [4]: 27.7% | inhibition at 1 µM [4]: 4.2% | inhibition at 0.1 µM [4]: 1.8% | inhibition at 0.01 µM [4]: 0.3% | protection against DSP-4 induced noradrenaline depletion / neuroprotective effect [5]: did not exhibit a neuroprotective effect

NNCCc1ccccc1 [phenelzine, 1-(2-phenyl) ethylhydrazine, reference compound]
GABA [1]: 733 µg/g | Valine [1]: 24.3 ± 0.8 µg/g | elevation of alanine levels ([1]; phenelzine): about 4 fold | brain GABA concentrations ([1]; phenelzine 150 pmol/kg (so in the source), in words): caused elevations in brain GABA concentrations | 5-HT [6]: 1232 ± 87 ng/g | DA [6]: 607 ± 103 ng/g | GABA [3]: 773 ± 37 µg/g | Valine [3]: 22.9 ± 0.4 µg/g | inhibition at 100 µM [4]: 100% | inhibition at 10 µM [4]: 100% | inhibition at 1 µM [4]: 98.9% | inhibition at 0.1 µM [4]: 62.9% | inhibition at 0.01 µM [4]: 6.9%
